The values below come from patent publication US12077503B2, “Substituted cyclic amides and their use as herbicides” (FMC CORPORATION, priority 2015, dated 2024).

Holding throughout (format): in vivo
Experiment [1] has as its system ducksalad (Heteranthera limosa). The experiment in a line: Test B flooded paddy test. As to conditions: Heteranthera limosa, Flood, 250 g ai/ha; scale of 0 to 100 where 0 is no effect and 100 is complete control; read-out: Ducksalad plant response rating. Summed up:
(§1)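 Greenhouse paddy pots with 2-leaf stage plants received compound by direct addition to floodwater 3 cm deep, kept at that level. Scored visually at 13–15 d versus controls (0 no effect; 100 complete control).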

For a further experiment, the system named is rice (Oryra sativa). The experiment in a line: Test B flooded paddy test. Particulars: Oryza sativa, Flood, 250 g ai/ha; scale of 0 to 100 where 0 is no effect and 100 is complete control; read-out: Rice plant response rating. In short, it runs like this:
as §1

Experiment [2] relates to barnyardgrass (Echinochloa crus-galli). Nature of the experiment: Test B flooded paddy test. Particulars: Echinochloa crus-galli, Flood, 250 g ai/ha; scale of 0 to 100 where 0 is no effect and 100 is complete control; read-out: Barnyardgrass plant response rating. In short, it runs like this:
as §1

The test system of experiment [3] is sedge, umbrella (small-flower umbrella sedge, Cyperus difformis). Nature of the experiment: Test B flooded paddy test. Particulars: Cyperus difformis, Flood, 250 g ai/ha; scale of 0 to 100 where 0 is no effect and 100 is complete control; read-out: Sedge, Umbrella plant response rating. Summed up: as §1
In experiment [4] the test system is giant foxtail (Setaria faberii). Nature of the experiment: Test A postemergence. Particulars: Setaria faberi, post-emergence, 240 h, 125 g ai/ha, Postemergence; visual injury after approximately 10 d; 0 to 100 scale where 0 is no effect and 100 is complete control; read-out: Plant response rating, Foxtail, Giant. Summed up:
(§2)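 Preemergence directed soil spray on seeded pots, or postemergence application to plants 2–10 cm, one- to two-leaf. Solvent mixture non-phytotoxic, with surfactant. Scored ~10 d later, visually, 0–100 vs untreated.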

For experiment [5], the system named is wheat (Triticum aestivum). Nature of the experiment: Test A postemergence. Particulars: Triticum aestivum, post-emergence, 240 h, 125 g ai/ha, Postemergence; visual injury after approximately 10 d; 0 to 100 scale where 0 is no effect and 100 is complete control; read-out: Plant response rating, Wheat. Summed up:
as §2

Experiment [6] has as its system Kochia (Kochia scoparia). Nature of the experiment: Test A postemergence. Particulars: Bassia scoparia, post-emergence, 240 h, 125 g ai/ha, Postemergence; visual injury after approximately 10 d; 0 to 100 scale where 0 is no effect and 100 is complete control; read-out: Plant response rating, Kochia. In short, it runs like this: as §2
The subject of experiment [7] is Galium (catchweed bedstraw, Galium aparine). Nature of the experiment: Test A postemergence. As to conditions: Galium, post-emergence, 240 h, 125 g ai/ha, Postemergence; visual injury after approximately 10 d; 0 to 100 scale where 0 is no effect and 100 is complete control; read-out: Plant response rating, Galium. Summed up: as §2
Experiment [8] concerns pigweed (Amaranthus retroflexus). The experiment in a line: Test A postemergence. As to conditions: Amaranthus retroflexus, post-emergence, 240 h, 125 g ai/ha, Postemergence; visual injury after approximately 10 d; 0 to 100 scale where 0 is no effect and 100 is complete control; read-out: Plant response rating, Pigweed. In short, it runs like this: as §2
For experiment [9], the system named is giant foxtail (Setaria faberii). The experiment in a line: Test A preemergence. As to conditions: Setaria faberi, pre-emergence, 240 h, preemergence, read-out: Foxtail, Giant plant response rating. Summed up:
as §2

Experiment [10] deals with ragweed (common ragweed, Ambrosia elatior). Nature of the experiment: Test A preemergence. Particulars: Ambrosia artemisiifolia, pre-emergence, 240 h, preemergence, read-out: Ragweed plant response rating. In short, it runs like this:
as §2

Experiment [11] deals with barnyardgrass (Echinochloa crus-galli). The experiment in a line: Test A preemergence. Particulars: Echinochloa crus-galli, pre-emergence, 240 h, preemergence, read-out: Barnyardgrass plant response rating. In short, it runs like this: as §2
The subject of experiment [12] is Kochia (Kochia scoparia). Nature of the experiment: Test A preemergence. Particulars: Bassia scoparia, pre-emergence, 240 h, preemergence, read-out: Kochia plant response rating. Summed up:
as §2

Experiment [13] concerns ryegrass, Italian (Italian ryegrass, Lolium multiflorum). Nature of the experiment: Test A preemergence. Particulars: Lolium multiflorum, pre-emergence, 240 h, preemergence, read-out: Ryegrass, Italian plant response rating. Summed up: as §2
Experiment [14] relates to pigweed (Amaranthus retroflexus). Nature of the experiment: Test A preemergence. As to conditions: Amaranthus retroflexus, pre-emergence, 240 h, preemergence, read-out: Pigweed plant response rating.
[15] abbreviates: 125 g ai/ha, 0 to 100 scale where 0 is no effect and 100 is complete control.
[16] abbreviates: 500 g ai/ha, visual injury rating about 10 d after treatment, 0 to 100 scale (0 no effect, 100 complete control).

As to `CS(=O)(=O)c1ccccc1NC(=O)[C@H]1C(=O)N(C2CC2)CC[C@@H]1c1cccc(C(F)(F)F)c1` [Compound 927], the pest or weed control at 250 g/ha (in experiment [1]; with rice (Oryra sativa); in [2]; in experiment [3]) was 0% each time. Also, the pest or weed control at 125 g/ha (in [4]; with Kochia (Kochia scoparia) [6]; in experiment [7]; in experiment [8]; in experiment [9] (setting [15]); in [10] (setting [15])) was 0% each time. Also, the pest or weed control at 125 g/ha (in experiment [11] (setting [15]); in the experiment with Kochia (Kochia scoparia) [12] (setting [15]); in [13] (setting [15]); in [14] (setting [15])) was 0% each time. Further, the plant injury at 125 g/ha in [5] is 0%. Also, the pest or weed control at 500 g/ha in experiment [9] (setting [16]) was 70%; in [10] (setting [16]), 0%; in experiment [11] (setting [16]), 70%; in the experiment on Kochia (Kochia scoparia) [12] (setting [16]), 0%; in experiment [13] (setting [16]) it was 0%; in experiment [14] (setting [16]), 0%.
